Tests used:
[1] = Reducing ability in DPPH assay; details: compound 100 μM
Protocol: Previous work has shown that pterins, their dihydro- and their tetrahydro-derivatives can each be antioxidants or pro-oxidants, depending on the particular conditions. In the present study, several assays were used to assess in vitro antioxidant activity in order to obtain representative information; each method involves the generation of a different radical.
Determination of reducing activity using 1,1-diphenyl-2-picrylhydrazyl radical (DPPH)
To a solution of DPPH in absolute ethanol was added an equal volume of the compound to be tested dissolved in DMSO (20 µL). From a stock solution (10 mM) was prepared a final solution of 100 µM for evaluation of the compounds. The absorbance at 517 nm was recorded after 20 and 60 min at room temperature (Table 2).

[2] = target: T1, soybean lipoxygenase (Glycine max, UniProt P08170); assay: Inhibition of soybean lipoxygenase; type: biochemical; details: for IC50: sodium linoleate 0.1 mM, read-out: Lipoxygenase inhibitory activity (IC50); for inhibition at 100 µM: compound at 100 µM, read-out: Lipoxygenase inhibitory activity (% at 100 µM)
T1 construct: purchased Sigma
T1 sequence (P08170 1-839): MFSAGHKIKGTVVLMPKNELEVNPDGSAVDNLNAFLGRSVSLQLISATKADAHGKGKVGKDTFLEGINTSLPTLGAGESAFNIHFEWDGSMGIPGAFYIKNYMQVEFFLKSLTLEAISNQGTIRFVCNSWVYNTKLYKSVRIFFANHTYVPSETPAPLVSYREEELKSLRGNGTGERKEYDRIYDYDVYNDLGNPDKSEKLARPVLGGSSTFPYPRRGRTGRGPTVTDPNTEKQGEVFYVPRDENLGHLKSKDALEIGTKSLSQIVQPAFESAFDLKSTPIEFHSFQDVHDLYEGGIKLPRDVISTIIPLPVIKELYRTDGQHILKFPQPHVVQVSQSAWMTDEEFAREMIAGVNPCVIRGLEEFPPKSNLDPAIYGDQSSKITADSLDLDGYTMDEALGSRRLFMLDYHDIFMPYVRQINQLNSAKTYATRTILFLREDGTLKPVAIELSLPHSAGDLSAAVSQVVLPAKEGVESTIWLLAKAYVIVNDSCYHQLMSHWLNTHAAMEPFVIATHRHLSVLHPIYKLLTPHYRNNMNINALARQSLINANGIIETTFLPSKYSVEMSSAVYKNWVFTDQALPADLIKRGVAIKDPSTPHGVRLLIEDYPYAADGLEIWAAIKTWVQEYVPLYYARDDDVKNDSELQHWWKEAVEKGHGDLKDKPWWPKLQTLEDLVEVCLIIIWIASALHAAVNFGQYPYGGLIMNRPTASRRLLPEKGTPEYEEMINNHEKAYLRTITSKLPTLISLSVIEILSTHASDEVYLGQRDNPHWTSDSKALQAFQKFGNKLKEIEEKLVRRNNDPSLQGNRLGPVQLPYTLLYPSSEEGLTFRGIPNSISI
Protocol: The substituted pteridines prepared were assayed for inhibition of soybean lipoxygenase (Table 1) (Supplementary Information). Many studies have used readily obtainable soybean lipoxygenase, which is a homologue of mammalian lipoxygenase and well examined. The availability of soybean LOX and its well-characterized crystal structure led to its use in this study.
Determination of soybean lipoxygenase inhibition
A solution in DMSO of each compound to be tested was incubated at room temperature with sodium linoleate (0.1 mM) and a solution of soybean lipoxygenase (EC 1.13.11.12) (1:9 x 10^4 w/v in saline, 0.2 mL, Sigma). The conversion of sodium linoleate to 13-hydroperoxylinoleic acid was monitored by observation at 234 nm and compared with the value of appropriate standard inhibitor (Table 1).
(§1) IC50 determinations. OriginPro 8 was used to determine IC50 values from the sigmoidal line fitted to a graph of log[concentration] against the average percentage inhibition from two independent experiments, with at least 6 different concentrations. The SEM is the calculated standard error in the IC50 value of the fitted line.

[3] = Inhibition of linoleic acid peroxidation (AAPH); details: linoleic acid peroxidation initiated by AAPH, 37 °C, pH 7.4
Excerpt: Azo compounds that generate free radicals through spontaneous thermal decomposition are useful for in vitro studies of free radical production. The water-soluble AAPH has been extensively used as a clean and controllable source of thermally produced alkylperoxyl free radicals. […] Evidently, the presence of 6,7-dimethyl groups on the pteridine ring greatly enhances protection against lipid peroxidation; the nature of the alkyl group and ring size on the 2-substituent has some, but much less, effect. […] The role of lipophilicity (as assessed from calculated clogP values; Table 1) is not clear, but substituent bulk plays a significant role.
Inhibition of linoleic acid peroxidation
Production of conjugated diene hydroperoxide by oxidation of linoleic acid in an aqueous dispersion was monitored at 234 nm. 2,2’-Azobis(2-amidinopropane) dihydrochloride (AAPH) was used as a free radical initiator. This assay was used to follow oxidative changes and to determine the inhibition of the peroxidation of sodium linoleate by each tested compound. A dispersion of sodium linoleate (16 mM, 10 μL) was added to the UV cuvette containing phosphate buffer (0.05 M, 0.93 mL) at pH 7.4 and kept in a thermostat at 37 °C. The oxidation reaction was initiated at 37 °C under air by the addition of AAPH solution (40 mM, 50 μL). Oxidation was carried out in the presence of aliquots (10 μL) of the tested compound. In the assay without antioxidant, lipid oxidation was measured in the presence of DMSO (10 μL). The rate of oxidation at 37 °C was monitored by recording the increase in absorption at 234 nm caused by conjugated diene hydroperoxide formation (Table 2).
as §1

[4] = Competition with DMSO for hydroxyl radicals; details: compound at 100 µM, Fe3+/ascorbic acid, DMSO 33 mM
Protocol: Competition of the novel pteridine derivatives with dimethyl sulfoxide for hydroxyl radicals was measured. […] The majority of the derivatives were excellent scavengers of hydroxyl radicals with activity higher than the reference compound 6-hydroxy-2,5,7,8-tetramethylchroman-2-carboxylic acid (Trolox).
Competition of pteridine derivatives with DMSO for hydroxyl radicals
Hydroxyl radicals generated by the Fe^3+/ascorbic acid system were detected by determination of formaldehyde produced from the oxidation of DMSO, according to the procedure of Nash. The reaction mixture comprised ethylenediaminetetracetic acid (EDTA) (0.1 mM), Fe^3+ (167 μM), DMSO (33 mM) in phosphate buffer (50 mM, pH 7.4), ascorbic acid (10 mM) and the compound to be tested at 100 µM. After incubation at 37 °C for 30 min the mixture was quenched with aqueous trichloroacetic acid (17% w/v) (Table 2) and the percentage competition of the tested compounds with DMSO for hydroxyl radicals was determined (Table 2).

## Cc1nc2nc(N3CCN(C)CC3)nc(N)c2nc1C [Compound 5b]
[1]
  RA (%) 100μM 20 min: 0%
  RA (%) 100μM 60 min: 13%
[2]
  IC50: 100 ± 0.3 µM
[3]
  IC50: 40 ± 0.8 µM
[4]
  Hydroxyl radicals scavenged (%): 94%

## CN1CCN(c2nc(N)c3nc(-c4ccccc4)c(-c4ccccc4)nc3n2)CC1 [Compound 5c]
[1]
  RA (%) 100μM 20 min: 10%
  RA (%) 100μM 60 min: 6%
other
  melting point: 107 to 109 °C
[2]
  inhibition at 100 µM: 22.5 ± 0.1%
[3]
  IC50: 0.5 ± 0.03 µM
[4]
  Hydroxyl radicals scavenged (%): 100%

## CN1CCN(c2nc(N3CCN(C)CC3)c3nccnc3n2)CC1 [Compound 9]
[1]
  RA (%) 100μM 20 min: 8%
  RA (%) 100μM 60 min: 14%
[2]
  IC50: 5 ± 0.1 µM
[3]
  IC50: 0.73 ± 0.2 µM
[4]
  Hydroxyl radicals scavenged (%): 96%

## CCN1CCNc2nc(N3CCN(C)CC3)nc(N3CCN(C)CC3)c21 [Compound 10a]
[1]
  RA (%) 100μM 20 min: 79%
  RA (%) 100μM 60 min: 81%
other
  melting point: 139 to 140 °C
[2]
  IC50: 5 ± 0.1 µM
[3]
  IC50: 15 ± 0.2 µM
[4]
  Hydroxyl radicals scavenged (%): 96%

## CCN1CCN(CC)c2c1nc(N1CCN(C)CC1)nc2N1CCN(C)CC1 [Compound 10b]
[1]
  RA (%) 100μM 20 min: 98%
  RA (%) 100μM 60 min: 97%
[2]
  IC50: 55 ± 0.2 µM
[3]
  IC50: 10 ± 0.43 µM
[4]
  Hydroxyl radicals scavenged (%): 98%

## OC1CCCN(c2nc(N3CCCC(O)C3)c3nccnc3n2)C1 (centres unmarked) [Compound 13]
[1]
  RA (%) 100μM 20 min: 6%
  RA (%) 100μM 60 min: 13%
[2]
  IC50: 60 ± 0.3 µM
[3]
  IC50: 0.33 ± 0.01 µM
[4]
  Hydroxyl radicals scavenged (%): 95%

## COc1ccccc1CNc1nc(N2CCN(C)CC2)nc2nccnc12 [Compound 18b]
[1]
  RA (%) 100μM 20 min: 13%
  RA (%) 100μM 60 min: 20%
[2]
  inhibition at 100 µM: 40 ± 0.2%
[3]
  IC50: 21 ± 0.9 µM
[4]
  Hydroxyl radicals scavenged (%): 90%

## CN1CCN(c2nc(NCCc3ccccc3)c3nccnc3n2)CC1 [Compound 18c]
[1]
  RA (%) 100μM 20 min: 11%
  RA (%) 100μM 60 min: 18%
other
  melting point: 127 to 128 °C
[2]
  inhibition at 100 µM: 22.5 ± 0.2%
[3]
  IC50: 10 ± 0.1 µM
[4]
  Hydroxyl radicals scavenged (%): 97%

## CN1CCN(c2nc(NCc3ccco3)c3nccnc3n2)CC1 [Compound 18e]
[1]
  RA (%) 100μM 20 min: 10%
  RA (%) 100μM 60 min: 17%
other
  melting point: 174 to 175 °C
[2]
  inhibition at 100 µM: 24 ± 0.3%
[3]
  IC50: 0.33 ± 0.03 µM
[4]
  Hydroxyl radicals scavenged (%): 94%

## Cc1nc2nc(N3CCN(C)CC3)nc(NCc3cccs3)c2nc1C [Compound 18g]
[1]
  RA (%) 100μM 20 min: 12%
  RA (%) 100μM 60 min: 12%
other
  melting point: 89 to 90 °C
[2]
  IC50: 88.5 ± 1.2 µM
[3]
  IC50: 0.1 ± 0.01 µM
[4]
  Hydroxyl radicals scavenged (%): 100%

## CCN1CCN(c2nc(NCc3cccs3)c3nccnc3n2)CC1 [Compound 20a]
[1]
  RA (%) 100μM 20 min: 4%
  RA (%) 100μM 60 min: 11%
other
  melting point: 148 to 149 °C
[2]
  IC50: 43 ± 0.7 µM
[3]
  IC50: 20 ± 0.5 µM
[4]
  Hydroxyl radicals scavenged (%): 92%

## CN1CCCN(c2nc(NCc3cccs3)c3nccnc3n2)CC1 [Compound 20b]
[1]
  RA (%) 100μM 20 min: 15%
  RA (%) 100μM 60 min: 19%
other
  melting point: 130 to 131 °C
[2]
  IC50: 62.5 ± 0.5 µM
[3]
  IC50: 41 ± 0.3 µM
[4]
  Hydroxyl radicals scavenged (%): 94%

## CN1CCN(c2nc(NCc3cccs3)c3nonc3n2)CC1 [Compound 23]
[1]
  RA (%) 100μM 20 min: 16%
  RA (%) 100μM 60 min: 18%
[2]
  IC50: 74 ± 3.5 µM
[3]
  IC50: 0.32 ± 0.02 µM
[3]; listed as 24
  IC50: ~0.3 µM
[4]
  Hydroxyl radicals scavenged (%): 94%

## CC(Cc1ccc(O)c(O)c1)C(C)Cc1ccc(O)c(O)c1 (centres unmarked) [NDGA, Nordihydroguaiaretic acid, reference compound]
[1]
  RA (%) 100μM 20 min: 81%
  RA (%) 100μM 60 min: 83%

## Cc1c(C)c2c(c(C)c1O)CCC(C)(C(=O)O)O2 (centres unmarked) [Trolox, 6-hydroxy-2,5,7,8-tetramethylchroman-2-carboxylic acid, reference compound]
[3]
  IC50: 55.5 µM
[4]
  Hydroxyl radicals scavenged (%): 73%
